Measurements as given in publication PMC9352912, “Oncogenic KRAS G12C: Kinetic and redox characterization of covalent inhibition” (The Journal of Biological Chemistry, 2022).

Assays:
[1] = test system: KRAS^CCLW; test: ESI-TOF mass spectrometry of adduct formation with reduced or H2O2-oxidized KRAS^CCLW; conditions: for reaction with sulfenic acid form of protein: H2O2-oxidized KRAS^CCLW (-SOH)
Description: The samples were buffer exchanged using a P6 Bio-Gel column that was pre-equilibrated with 50 mM ammonium bicarbonate (ABC). […] Oxidation was achieved by addition of 1 to 10 molar equivalents of H2O2 for 10 min at 25 °C with 250 RPM shaking using a thermomixer. The reaction was quenched by passing through a P6 Bio-Gel spin column pre-equilibrated with ABC.
Samples were introduced via direct infusion at a flow rate of 20 μl/min using a syringe pump. Mass spectra were acquired over the range of 600 − 3200 m/z and then averaged and deconvoluted, and ion abundance was quantified using Agilent MassHunter Workstation software vB.02.00. Relative ion abundances were used to determine the reaction progress.

[2] = molecular target: T1, KRAS^CCLW (KRAS^G12C/C51S/C80L/C118S/Y137W) (Homo sapiens, UniProt P01116, C118S/C51S/C80L/G12C/Y137W); test: Stopped-flow fluorescence kinetics of KRAS^CCLW with covalent inhibitor (binding and ligation); conditions: for k +1: global fit KinTek Explorer, kon of reversible binding; for k +2 / k −1: global fit; for k +2: kinact; for k −1: koff of reversible binding
T1 construct: Truncated human KRAS4B (residues 2–169) was expressed from a modified pET21 bacterial expression vector; 6xHis (followed by TEV site) (N, cleaved yes); made in house; host or cells: Rosetta2 (DE3) cells (E. coli)
Description: Note that in this kinetic model, k+1 represents kon and k-1 represents koff for reversible inhibitor binding, and Kd can be calculated from the ratio of the two. In addition, k+2 represents kinact and k-2, not shown in the model, is 0 due to the irreversible formation of the covalent bond between KRAS and inhibitor.
The KRAS was first reduced by adding 10 mM DTT and incubating at 20 °C for 30 min and then passed over a PD-10 desalting column to remove excess DTT, then the protein was exchanged into a buffer containing 10 mM Hepes at pH 7.5, with 50 mM NaCl, 5 mM MgCl2, and 10 μM GDP. Samples were loaded into the syringes of an Applied Photophysics SX.18 MV stopped-flow spectrophotometer and allowed to equilibrate to 5 or 20 °C. The fluorescence changes were recorded after sample mixing via monitoring at 90° relative to incident light with excitation at 280 nm and emission >320 nm. Separate time courses were used to investigate the fast initial changes (0.2–1 s) and the much slower phase (100–1000 s) of decreasing fluorescence signal. Data were analyzed using Applied Photophysics software and fit to single (or double) exponentials as appropriate. To obtain rate constants and inhibition parameters, data from all (four or more) inhibitor concentrations at a given pH and 5 °C were fit globally using KinTek Global Kinetic Explorer (version 10.2.0) ([20], [38]) using Equation 2 (both steps are taken to be reversible, but the second step returns a reverse rate that is essentially 0). […] Briefly, data were fit to Equation 3 using Kaleidagraph software, version 4.5.4:(3) y=(kinact/Ki)×/(1+((kinact/Ki)×/kinact))

[3] = Inhibitor solubility in MHT reaction buffer; conditions: MHT buffer with 3% dimethyl sulfoxide
[4] = molecular target: T2, Cys12 (UniProt position 12, VVVGACGVGKS); test: chemical modification
[5] = molecular target: T2, Cys12; test: NMR; conditions: 25 °C, 40 mM NaCl, 5 mM MgCl2, 20 mM Tris-Maleate, 5 mM MgCl2, 20 μM GDP, GDP-bound, inhibitor-free, folded
[6] = molecular target: T2, Cys12; test: kinetics; conditions: 50 mM NaCl, 5 mM MgCl2, MHT buffer: 50 mM MES, 50 mM Hepes, 50 mM Tris, Pre-reduced protein reacting with ARS-853 (inhibitor-bound encounter complex), GDP form

## C=CC(=O)N1CC(N2CCN(C(=O)CNc3cc(C4(C)CC4)c(Cl)cc3O)CC2)C1 [ARS-853]
[1]; H2O2-oxidized KRAS^CCLW (-SO2H)
  reaction with sulfinic acid form of protein: did not react
[1]
  reaction with sulfenic acid form of protein: did not react
[1]; reduced KRAS^CCLW (-SH), […] excess of inhibitor, 25 °C
  time to adduct formation with reduced protein: ≤ 5 min
[2]; pH 7.0, 5 °C
  k +1: 1.35 ± 0.01
  k +2: 0.0073 ± 0.0004
  k −1: 49.7 ± 0.3
[2]; pH 7.5, 5 °C
  k +1: 1.69 ± 0.01
  k +2: 0.0169 ± 0.0005
  k −1: 51.1 ± 0.3
[2]; pH 8.0, 5 °C
  k +1: 1.50 ± 0.01
  k +2: 0.038 ± 0.006
  k −1: 51.2 ± 0.3
[2]; pH 8.5, 5 °C
  k +1: 1.45 ± 0.01
  k +2: 0.099 ± 0.001
  k −1: 61.7 ± 0.4
[2]; pH 9.0, 5 °C
  k +1: 0.976 ± 0.009
  k +2: 0.280 ± 0.003
  k −1: 75.1 ± 0.4
[3]
  inhibitor solubility (no problem encountered up to): ≥ 300 µM

## CC1(C)CC(=O)CC(=O)C1 [dimedone]
[1]
  reaction with sulfenic acid form of protein: reacted rapidly

## GTPase KRas G12C (as studied by Hansen et al. 2018) (Homo sapiens; G12C)
[4]; KRAS G12C reacting with N-benzylacrylamide, cited from earlier work
  pKa: 9.2
[4]; inhibitor-free KRAS G12C, cited from earlier work
  pKa: 9.0 ± 0.2

## GTPase KRas (KRAS4B) G12C/C118S (Homo sapiens; G12C;C118S)
[4]; 50 mM NaCl, 5 mM MgCl2, 15 mM Hepes, 15 mM MES, 5 mM MgCl2, 50 mM NaCl, 200 μM DTPA, N2-sparged, DTT removed, Reduced thiol, inhibitor-free. Nucleotide state not stated for this assay.
  pKa: 7.6 ± 0.1
[5]
  pKa: 7.6 ± 0.4

## GTPase KRas (KRAS4B) G12C Cys-light Y137W (KRAS-CCLW) (Homo sapiens; G12C;C51S;C80L;C118S;Y137W)
[6]; 5 °C
  pKa: 8.15 ± 0.13
[6]; 20 °C
  pKa: 8.21 ± 0.09
